Drawing on ChEMBL document CHEMBL1201862, “PubChem BioAssay data set” (2004), this text covers IC50, EC50 and AC50 for 7 compounds.

One test relates to CHO-K1. The experiment in a line: Counterscreen for antagonists of the orexin 1 receptor (OX1R; HCRTR1): Homogeneous time resolved fluorescence (HTRF)-based cell-based dose response assay to identify antagonists of the parental CHO-K1 cell line. [Related pubchem assays (depositor defined):AID434989, AID435008, AID463079, AID485270, AID492963, AID492964, AID492965, AID493232, AID504699, AID504701]. The settings on record: Cricetulus griseus. Format: functional. (In general: A counterscreen serves to expose hits that act by an unwanted route or on another target.)

Test [1] is described as follows: Counterscreen for antagonists of the orexin 1 receptor (OX1R; HCRTR1): Fluorescence-based cell-based high throughput dose response assay to identify antagonists of the parental CHO cell line. [Related pubchem assays (depositor defined):AID434989, AID435008, AID463079, AID485270, AID492963, AID492964, AID492965, AID493232, AID504699, AID504701]. It counts as functional.

The target in the next test is T1, Coagulation factor XII (Homo sapiens, UniProt P00748).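 Further: activated factor XIIa alpha cleaving a fluorogenic AMC peptide substrate; inhibitor potency from loss of enzyme activity.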
T1 sequence (P00748 whole entry): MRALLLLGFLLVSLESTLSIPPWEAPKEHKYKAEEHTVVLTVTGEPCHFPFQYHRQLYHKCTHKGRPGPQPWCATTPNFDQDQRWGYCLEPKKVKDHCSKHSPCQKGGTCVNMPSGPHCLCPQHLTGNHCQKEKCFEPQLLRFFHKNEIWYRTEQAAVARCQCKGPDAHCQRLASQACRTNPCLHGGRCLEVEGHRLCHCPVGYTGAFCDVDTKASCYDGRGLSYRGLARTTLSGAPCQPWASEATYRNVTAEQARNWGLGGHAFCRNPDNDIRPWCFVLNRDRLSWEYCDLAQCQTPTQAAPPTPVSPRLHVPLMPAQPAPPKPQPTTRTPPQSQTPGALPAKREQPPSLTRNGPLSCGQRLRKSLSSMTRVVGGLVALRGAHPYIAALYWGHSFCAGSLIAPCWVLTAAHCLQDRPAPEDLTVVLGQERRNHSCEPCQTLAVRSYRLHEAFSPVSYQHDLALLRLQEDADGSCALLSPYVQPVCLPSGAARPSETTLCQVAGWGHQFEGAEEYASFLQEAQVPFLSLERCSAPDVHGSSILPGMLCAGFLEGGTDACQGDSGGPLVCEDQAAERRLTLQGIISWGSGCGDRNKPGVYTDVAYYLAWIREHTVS
Format: functional.

For test [2], the target named is T2, Orexin/Hypocretin receptor type 1 (Homo sapiens, UniProt O43613).
T2 sequence (O43613 whole entry): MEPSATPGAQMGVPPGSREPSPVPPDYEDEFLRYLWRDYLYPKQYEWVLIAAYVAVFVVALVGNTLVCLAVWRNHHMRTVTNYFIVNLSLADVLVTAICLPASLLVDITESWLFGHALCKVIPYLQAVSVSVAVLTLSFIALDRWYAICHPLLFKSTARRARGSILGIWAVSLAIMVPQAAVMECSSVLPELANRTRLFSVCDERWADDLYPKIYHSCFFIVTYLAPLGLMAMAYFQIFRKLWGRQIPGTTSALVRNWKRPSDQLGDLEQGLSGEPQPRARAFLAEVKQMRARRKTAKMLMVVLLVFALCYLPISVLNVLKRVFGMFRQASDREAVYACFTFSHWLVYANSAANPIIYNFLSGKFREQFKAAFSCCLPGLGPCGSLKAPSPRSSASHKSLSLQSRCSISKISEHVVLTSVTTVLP
The experiment in a line: Homogeneous Time Resolved Fluorescence (HTRF)-based cell-based high throughput dose response assay for antagonists of the orexin 1 receptor (OX1R; HCRTR1). [Related pubchem assays (depositor defined):AID434989, AID435008, AID463079, AID485270, AID492963, AID492964, AID492965, AID493232, AID504717, AID504718]. Format: functional. A general note: Time-resolved FRET reads energy transfer from a long-lived donor to a nearby acceptor.

Test [3] deals with T2, Orexin/Hypocretin receptor type 1. Put plainly: Fluorescence-based cell-based high throughput dose response assay for antagonists of the orexin 1 receptor (OX1R; HCRTR1). [Related pubchem assays (depositor defined):AID434989, AID435008, AID463079, AID485270, AID492963, AID492964, AID492965, AID493232, AID504717, AID504718]. It counts as functional.
Test [4] concerns the target T3, Orexin receptor type 2 (Homo sapiens, UniProt O43614).
T3 sequence (O43614 whole entry): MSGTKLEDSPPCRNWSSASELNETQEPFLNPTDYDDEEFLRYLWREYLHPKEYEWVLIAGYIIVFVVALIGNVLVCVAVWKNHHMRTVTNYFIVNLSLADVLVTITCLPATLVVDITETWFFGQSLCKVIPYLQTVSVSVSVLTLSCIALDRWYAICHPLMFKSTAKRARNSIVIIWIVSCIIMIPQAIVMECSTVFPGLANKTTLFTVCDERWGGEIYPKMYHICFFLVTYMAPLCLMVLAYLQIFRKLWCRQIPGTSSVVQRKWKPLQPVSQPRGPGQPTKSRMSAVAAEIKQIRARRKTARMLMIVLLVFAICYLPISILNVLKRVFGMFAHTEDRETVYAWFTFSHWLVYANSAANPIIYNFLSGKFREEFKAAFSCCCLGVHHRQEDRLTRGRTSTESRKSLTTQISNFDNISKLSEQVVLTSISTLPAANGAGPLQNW
The experiment in a line: Counterscreen assay for antagonists of the orexin 1 receptor (OX1R; HCRTR1): Fluorescence-based cell-based dose response assay for antagonists of the orexin 2 receptor (OX2R; HCRTR2), run by assay provider. It counts as functional.

Test [5] concerns the target T3, Orexin receptor type 2. Put plainly: Counterscreen assay for antagonists of the orexin 1 receptor (OX1R; HCRTR1): Homogeneous Time Resolved Fluorescence (HTRF)-based cell-based dose response assay for antagonists of the orexin 2 receptor (OX2R; HCRTR2), run by assay provider. It counts as functional.
The next test in a line: cells. Format: functional.
The target in test [6] is Benomyl/methotrexate resistance protein (Candida albicans, UniProt P28873). Put plainly: Candida albicans Mdr1 pump inhibition curves – singleplex, Cherry Pick1 hits, dose response (AID 588608). It counts as functional.
Sequence of Benomyl/methotrexate resistance protein (P28873 whole entry): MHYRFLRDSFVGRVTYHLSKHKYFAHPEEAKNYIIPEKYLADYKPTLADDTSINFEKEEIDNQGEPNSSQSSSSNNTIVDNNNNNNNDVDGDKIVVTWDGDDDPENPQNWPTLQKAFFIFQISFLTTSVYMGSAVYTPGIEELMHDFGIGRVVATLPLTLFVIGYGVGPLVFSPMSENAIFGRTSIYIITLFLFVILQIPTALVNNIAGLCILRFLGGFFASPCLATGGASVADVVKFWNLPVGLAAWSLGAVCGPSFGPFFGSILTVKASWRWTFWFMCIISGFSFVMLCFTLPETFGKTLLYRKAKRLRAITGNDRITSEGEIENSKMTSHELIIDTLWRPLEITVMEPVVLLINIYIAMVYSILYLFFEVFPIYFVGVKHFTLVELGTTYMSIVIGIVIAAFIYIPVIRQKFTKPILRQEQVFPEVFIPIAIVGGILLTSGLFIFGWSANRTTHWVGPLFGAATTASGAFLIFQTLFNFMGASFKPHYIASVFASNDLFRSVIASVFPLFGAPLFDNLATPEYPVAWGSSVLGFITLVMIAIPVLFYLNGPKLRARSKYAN
For test [7], the target named is T4, Multidrug resistance protein CDR2 (Candida albicans (strain SC5314 / ATCC MYA-2876) (Yeast), UniProt P78595).
T4 sequence (P78595 whole entry): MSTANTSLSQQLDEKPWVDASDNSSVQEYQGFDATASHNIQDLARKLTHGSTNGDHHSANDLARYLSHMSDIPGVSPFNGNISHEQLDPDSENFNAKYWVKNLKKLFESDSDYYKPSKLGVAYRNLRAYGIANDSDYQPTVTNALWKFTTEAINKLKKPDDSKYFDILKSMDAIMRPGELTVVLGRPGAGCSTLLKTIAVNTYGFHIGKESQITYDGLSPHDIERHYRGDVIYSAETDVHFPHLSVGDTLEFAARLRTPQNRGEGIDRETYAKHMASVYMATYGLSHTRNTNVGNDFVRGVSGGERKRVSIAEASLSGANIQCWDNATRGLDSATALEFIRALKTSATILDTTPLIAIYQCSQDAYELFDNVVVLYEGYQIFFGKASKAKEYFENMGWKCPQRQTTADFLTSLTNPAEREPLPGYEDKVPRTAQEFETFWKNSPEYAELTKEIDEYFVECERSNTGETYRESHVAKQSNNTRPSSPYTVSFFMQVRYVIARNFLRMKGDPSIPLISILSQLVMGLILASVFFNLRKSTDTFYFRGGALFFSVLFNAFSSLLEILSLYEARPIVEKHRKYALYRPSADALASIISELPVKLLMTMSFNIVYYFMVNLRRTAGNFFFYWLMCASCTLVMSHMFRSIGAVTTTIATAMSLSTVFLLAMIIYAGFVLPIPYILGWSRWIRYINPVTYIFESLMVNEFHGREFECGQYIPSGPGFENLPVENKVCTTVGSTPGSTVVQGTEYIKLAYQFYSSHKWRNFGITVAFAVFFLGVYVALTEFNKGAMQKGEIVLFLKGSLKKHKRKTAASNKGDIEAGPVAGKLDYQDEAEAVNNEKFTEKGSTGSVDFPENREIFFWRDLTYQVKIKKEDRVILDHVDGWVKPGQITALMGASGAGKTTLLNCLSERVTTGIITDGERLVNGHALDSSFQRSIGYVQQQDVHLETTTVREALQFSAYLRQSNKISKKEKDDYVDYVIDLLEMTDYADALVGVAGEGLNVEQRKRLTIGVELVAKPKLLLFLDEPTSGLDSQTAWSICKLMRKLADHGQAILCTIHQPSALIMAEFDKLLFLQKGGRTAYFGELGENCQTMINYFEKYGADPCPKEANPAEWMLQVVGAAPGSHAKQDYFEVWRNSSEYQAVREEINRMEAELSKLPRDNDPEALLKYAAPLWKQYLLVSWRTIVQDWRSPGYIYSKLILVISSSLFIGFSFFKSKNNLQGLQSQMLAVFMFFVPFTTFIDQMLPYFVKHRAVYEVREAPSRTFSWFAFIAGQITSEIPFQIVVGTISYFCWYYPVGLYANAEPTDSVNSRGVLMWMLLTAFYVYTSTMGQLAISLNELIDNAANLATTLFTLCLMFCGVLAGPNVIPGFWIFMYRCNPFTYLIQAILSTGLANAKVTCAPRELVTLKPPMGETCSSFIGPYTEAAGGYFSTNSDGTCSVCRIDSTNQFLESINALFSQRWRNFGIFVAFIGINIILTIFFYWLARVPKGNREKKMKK
Put plainly: inhibition of Nile Red efflux via Candida CDR2 – S. cerevisiae AD1-8u, singleplex, Cherry Pick1 hits, dose response (AID 588604). It counts as functional.

Test [8] deals with DNA dC->dU-editing enzyme APOBEC-3G (Homo sapiens, UniProt Q9HC16). Put plainly: inhibition of APOBEC3G ssDNA deamination – biochemical, fluorescence, single-stranded DNA substrate, SAR follow-up (AID 602136). Format: functional. The settings on record: read-out: IC50_Mean.
Sequence of DNA dC->dU-editing enzyme APOBEC-3G (Q9HC16 whole entry): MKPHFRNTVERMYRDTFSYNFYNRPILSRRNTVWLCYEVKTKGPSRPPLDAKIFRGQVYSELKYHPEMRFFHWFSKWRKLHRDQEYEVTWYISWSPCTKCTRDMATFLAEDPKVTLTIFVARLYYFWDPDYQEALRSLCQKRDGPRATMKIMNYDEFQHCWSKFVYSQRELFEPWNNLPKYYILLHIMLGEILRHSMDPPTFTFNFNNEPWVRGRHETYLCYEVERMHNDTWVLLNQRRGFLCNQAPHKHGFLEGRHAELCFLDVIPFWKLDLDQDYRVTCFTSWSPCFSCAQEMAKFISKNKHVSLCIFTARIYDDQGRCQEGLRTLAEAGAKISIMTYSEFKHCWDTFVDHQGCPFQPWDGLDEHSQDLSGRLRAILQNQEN
The target of test [9] is DNA dC->dU-editing enzyme APOBEC-3A (Homo sapiens, UniProt P31941). The experiment in a line: SAR analysis of small molecule inhibitors of APOBEC3A DNA Deaminase via a fluorescence-based single-stranded DNA deaminase assay. The settings on record: read-out: IC50_Mean. Format: functional.
Sequence of DNA dC->dU-editing enzyme APOBEC-3A (P31941 whole entry): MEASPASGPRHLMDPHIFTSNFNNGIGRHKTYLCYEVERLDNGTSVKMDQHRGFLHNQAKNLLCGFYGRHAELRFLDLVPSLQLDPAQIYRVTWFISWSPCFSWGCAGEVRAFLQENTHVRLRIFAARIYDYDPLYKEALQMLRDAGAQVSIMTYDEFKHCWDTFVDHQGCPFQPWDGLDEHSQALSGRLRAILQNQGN
The target in test [10] is T5, ATP-dependent translocase ABCB1 (Homo sapiens, UniProt P08183). The experiment in a line: inhibition of BCRP-mediated JC-1 efflux – Ig-MXP3 cells, flow cytometry, set 2, dose response (AID 504566).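 Further: flow cytometry median green fluorescence of retained JC-1 dye; potency of efflux pump inhibition measured as rising substrate retention.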 Format: functional. The settings on record: read-out: EC50_MICROM_. For orientation: A flow cytometer gives signals particle by particle.
T5 sequence (P08183 whole entry): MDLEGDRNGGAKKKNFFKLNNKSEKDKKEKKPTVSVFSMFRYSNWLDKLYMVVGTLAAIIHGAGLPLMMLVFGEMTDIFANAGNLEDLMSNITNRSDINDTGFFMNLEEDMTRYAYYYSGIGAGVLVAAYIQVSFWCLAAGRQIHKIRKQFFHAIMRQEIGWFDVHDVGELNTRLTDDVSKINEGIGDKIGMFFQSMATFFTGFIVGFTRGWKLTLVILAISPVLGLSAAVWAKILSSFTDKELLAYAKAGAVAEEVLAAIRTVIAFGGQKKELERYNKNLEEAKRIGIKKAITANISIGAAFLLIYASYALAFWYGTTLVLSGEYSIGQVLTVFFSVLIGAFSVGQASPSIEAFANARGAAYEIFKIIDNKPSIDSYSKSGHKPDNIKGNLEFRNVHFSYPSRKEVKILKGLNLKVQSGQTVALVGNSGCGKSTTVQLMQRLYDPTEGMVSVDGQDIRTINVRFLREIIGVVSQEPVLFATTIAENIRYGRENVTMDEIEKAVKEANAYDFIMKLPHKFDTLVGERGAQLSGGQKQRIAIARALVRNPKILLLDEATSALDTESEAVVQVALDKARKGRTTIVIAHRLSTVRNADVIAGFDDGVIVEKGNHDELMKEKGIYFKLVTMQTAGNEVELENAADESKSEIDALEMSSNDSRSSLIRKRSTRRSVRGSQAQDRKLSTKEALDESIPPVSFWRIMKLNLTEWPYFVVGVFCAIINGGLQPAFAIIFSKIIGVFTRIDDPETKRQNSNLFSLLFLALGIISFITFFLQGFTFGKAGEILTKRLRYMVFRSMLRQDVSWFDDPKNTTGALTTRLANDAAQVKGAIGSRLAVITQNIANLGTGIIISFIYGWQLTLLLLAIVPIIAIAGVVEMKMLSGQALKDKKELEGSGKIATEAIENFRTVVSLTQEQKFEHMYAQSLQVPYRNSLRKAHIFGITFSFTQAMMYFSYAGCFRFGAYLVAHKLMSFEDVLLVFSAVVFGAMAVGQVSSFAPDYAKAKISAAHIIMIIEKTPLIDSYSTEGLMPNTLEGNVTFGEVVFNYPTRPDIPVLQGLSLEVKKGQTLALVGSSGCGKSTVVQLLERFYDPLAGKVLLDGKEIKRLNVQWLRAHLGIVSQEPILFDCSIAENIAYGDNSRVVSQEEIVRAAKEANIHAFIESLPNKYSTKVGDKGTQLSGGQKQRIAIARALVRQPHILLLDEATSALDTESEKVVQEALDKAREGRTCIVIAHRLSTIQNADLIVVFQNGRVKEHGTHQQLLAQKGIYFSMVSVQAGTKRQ
Test [11] has as its target T5, ATP-dependent translocase ABCB1. The experiment in a line: P-gp JC-1 efflux blockade concentration-response – Jurkat-DNR cells, flow cytometry, set 2, dose response (AID 504569).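 Further: potency of pump inhibitors that raise cellular JC-1 green fluorescence up to the nicardipine level.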 Format: functional. As to conditions: read-out: EC50_MICROM_.
Test [12] is described as follows: inhibition of ARNT PAS-B/TACC3 complex formation – biochemical, AlphaScreen, cherry-picked samples, confirmation (AID 651703).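 Further: His-tagged ARNT PAS-B domain paired with GST-TACC3 E629A dimer coactivator fragment; potency of inhibitors that break up the complex and lower AlphaScreen signal.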 Format: functional, Homo sapiens.

SMILES strings stand for the structures. Several values for one entry are separate records, joined by “and”; a condition that tells them apart may be missing. Equal values may be shown once. Activity calls are given as the source filed them. A value given as a limit tells only on which side of the number the result lay.

In the case of `Cc1ccc(C(=O)N/C(=C/c2ccc(-c3cccc([N+](=O)[O-])c3)o2)C(=O)NC(C)(C)C)cc1`, the IC50 is > 66.3 µM (inactive) in the test with CHO-K1; > 49.8 µM (inactive) in test [1]; > 50 µM (inactive) on Coagulation factor XII; 2.09 µM (active) in test [2]; > 5.53 µM (active) in test [3]; 27.9 µM (inactive) on Orexin receptor type 2 [4]. In addition, the IC50 at Orexin receptor type 2 [5] was 2.42 µM (active).

Regarding `COc1ccc(CCOC(=O)c2ccc(N)c([N+](=O)[O-])c2)cc1`, the IC50 in the test “cells” is 21 µM (active). Also, the EC50 in test [6] was 0.011 µM (active); in [7] it was 4.29 µM (active).

In the case of `Cc1ccc(-c2nnc(SC(C)C(=O)NCc3ccco3)n2C)cc1` (stereo not drawn), the IC50 in [8] and in [9] was > 99 µM (inactive) throughout.

On to `O=C(c1ccco1)N1CCN(c2cc(-c3ccccc3)nc3cc(-c4cccc(Cl)c4)nn23)CC1`, for which the EC50 in [10] is 720 nM (active) and 2 µM (active); in [11], 2.67 µM (active) and 3.69 µM (active).

For the compound `CCC(C)n1c(SCC(=O)NCc2ccco2)nnc1-c1cccc(S(=O)(=O)N2CCOCC2)c1` (stereo not drawn), the IC50 in test [8] and in test [9] was > 99 µM (inactive) in each case.

The term AC50 denotes the midpoint of the concentration-response curve, whichever way the signal moves. For the compound `O=C(N/N=C1/CCS(=O)(=O)c2ccc(F)cc21)c1ccccn1`, the AC50 in test [12] is 78.4 µM (active).

As to `COC(=O)c1ccccc1NC(=O)CSc1nc(O)cc(=O)n1C1CCCC1`, the IC50 in the test on CHO-K1 is > 66.2 µM (inactive); in test [1], > 49.8 µM (inactive); in [2], 0.137 µM (active); in [3] it was 4.86 µM (active); at Orexin receptor type 2 [4], 56.2 µM (inactive); at Orexin receptor type 2 [5] it was > 50 µM (inactive).
